We go through two compounds from publication PMC8587515, “Cytotoxic and Anti-Inflammatory Activities of Dihydroisocoumarin and Xanthone Derivatives from Garcinia picrorhiza” (Molecules, 2021).

Data set [1] can be described thus: Cytotoxicity (XTT cell viability), BV-2. It counts as cell-based. Conditions: mouse, BV-2 microglial cells, LPS/IFN-γ-stimulated, LPS-IFN-γ-induced cells, mean ± SEM (n = 6). The procedure: (§1) Compounds 1–8 were screened for their inhibitory effects on nitric oxide production in LPS-IFN-γ activated RAW 264.7 macrophages and BV-2 microglial cells at a final concentration of 50 µM. […] A deprenylated furanoxanthone structure with ortho hydroxy group in ring B as in 7 might be important to enhance the inhibitory effect when compared to 6 and 8.
(§2) The iNOS inhibitory activity of the isolated compounds and respective cytotoxicity was determined using a previously described protocol. Briefly, BV-2 mouse microglial (25,000 cells/well) and RAW 264.7 mouse macrophage (100,000 cells/well) cell lines were seeded into 96-well plates in high glucose Dulbecco’s Modified Eagle’s Medium (DMEM, Gibco) containing 4 mM L-glutamine, 10% FBS, 2% HEPES, 1% penicillin/streptomycin, and 0.5% amphotericin B. After incubation for 24 h at 37 °C in a 5% CO2 humidified atmosphere, the cells were stimulated with 0.05% LPS (Sigma) and 0.025% interferon-γ (Roche Diagnostics, Mannheim, Germany) and treated with different concentrations (5–100 μM) of the tested compounds. The level of NO production in cell culture supernatants was determined using Griess reagent (Sigma) by photocolorimetric analysis after 16 h of incubation, using a Hidex Sense Microplate Reader (Hidex, Turku, Finland). Fifty microliters of XTT reagent (Sigma, Kit II) was then added into the same plates for cell viability measurement after 60 min incubation. L-NMMA (Alexis, Grünberg, Germany) 100 µM was used as the positive control, while 1% DMSO and digitonin (Roth, Karlsruhe, Germany) 400 µM were used as the vehicle and negative control, respectively. The assays were conducted in triplicates and repeated in two independent experiments. IC50 values were determined by graphical analysis using GraphPad Prism 7 (GraphPad Software, La Jolla, CA, USA).

The target in data set [2] is T1, COX-2 (human recombinant PGHS-2) (Homo sapiens, UniProt P35354).
T1 construct: purchased Cayman Chemical Co., Ann Arbor, MI, USA
T1 sequence (P35354 18-604): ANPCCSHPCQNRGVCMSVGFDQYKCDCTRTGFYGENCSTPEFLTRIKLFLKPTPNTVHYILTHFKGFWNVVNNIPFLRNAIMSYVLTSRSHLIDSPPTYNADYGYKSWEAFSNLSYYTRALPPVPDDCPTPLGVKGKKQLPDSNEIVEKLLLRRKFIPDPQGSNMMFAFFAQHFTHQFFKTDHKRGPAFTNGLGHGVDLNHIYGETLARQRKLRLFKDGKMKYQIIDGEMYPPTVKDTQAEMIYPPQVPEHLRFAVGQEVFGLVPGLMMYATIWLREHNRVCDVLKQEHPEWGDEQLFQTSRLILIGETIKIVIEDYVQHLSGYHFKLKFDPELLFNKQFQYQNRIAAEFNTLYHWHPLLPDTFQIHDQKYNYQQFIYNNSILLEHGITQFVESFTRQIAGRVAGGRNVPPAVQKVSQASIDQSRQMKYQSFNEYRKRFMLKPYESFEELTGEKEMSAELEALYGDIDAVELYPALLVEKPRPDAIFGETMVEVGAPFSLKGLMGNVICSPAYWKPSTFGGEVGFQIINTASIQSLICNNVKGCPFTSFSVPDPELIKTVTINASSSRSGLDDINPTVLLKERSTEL
Briefly: COX-2 enzyme inhibition assay (PGE2 ELISA). The note with it: mean ± SD (n = 4). In kind it is biochemical. The procedure: The anti-inflammatory effects of the isolated compounds were also screened on COX-1 and COX-2 enzymes inhibition at a final concentration of 20 µM.
Purified PGHS-1 from ram seminal vesicles for COX-1 and human recombinant PGHS-2 for COX-2 (Cayman Chemical Co., Ann Arbor, MI, USA) were used for the COX inhibition assays. Experiments were performed in a 96-well plate format, as previously described. Briefly, the incubation mixture contained 180 µL of 0.1 M TRIS/HCl-buffer pH 8.0 (Roth, Karlsruhe, Germany), 50 µM Na2EDTA (only for COX-2, Titriplex III, Merck, Darmstadt, Germany), 18 mM L-epinepherine bitartrate (Fluka, Buchs, Switzerland), 5 µM porcine hematin (MP Biomedicals LLC, Solon, OH, USA), and COX-1 or COX-2 enzymes (0.2 U/well). Ten microliters of tested compounds (dissolved in DMSO with a final concentration of 20 µM) was added and the mixture was pre-incubated for 5 min at room temperature. Thereafter, 10 µL of 5 µM arachidonic acid (Ann Arbor, Michigan USA) was added to the mixture and incubated for 20 min at 37 °C. The reaction was subsequently stopped by adding 10 µL of 10% (v/v) formic acid. The concentration of PGE2 generated in the reaction was quantitatively measured by a competitive PGE2 ELISA kit (Enzo Life Sciences Inc., Farmingdale, NY, USA) according to the manufacturer’s protocol and previous procedure. The absorbance at 405 nm was measured using a Hidex Sense Microplate Reader (Hidex, Turku, Finland). […] The assays were performed in duplicates and repeated in two independent experiments.

The subject of data set [3] is NO production in LPS-IFN-γ-induced BV-2 microglial cells. Briefly: NO production inhibition assay (Griess), BV-2. In kind it is cell-based, mouse. The note with it: for IC50: Mus musculus, BV-2, LPS-IFN-γ-induced, 16 h, mean ± SEM (n = 6), read-out: IC50, iNOS (inhibition of NO production), BV-2; for suppression of NO production, BV-2: final concentration of 50 µM, preliminary screen; for IC50 of NO inhibition lower than the cytotoxic activity, BV-2: ratio cytotoxicity IC50 / NO inhibition IC50 in BV-2 cells. The procedure:
as §1, §2

In data set [4] the test system is NO production in LPS-IFN-γ-induced RAW 264.7 macrophages. Briefly: NO production inhibition assay (Griess), RAW 264.7. In kind it is cell-based, mouse. Conditions: for IC50: Mus musculus, RAW264.7, LPS-IFN-γ-induced, 16 h, mean ± SEM (n = 6), read-out: IC50, iNOS (inhibition of NO production), RAW 264.7; for suppression of NO production, RAW 264.7: final concentration of 50 µM, preliminary screen. The procedure: as §1, §2

A short description of data set [5]: Cytotoxicity (XTT cell viability), RAW 264.7. It counts as cell-based. The note with it: mouse, RAW 264.7 macrophage cells, LPS/IFN-γ-stimulated, LPS-IFN-γ-induced cells, mean ± SEM (n = 6). The procedure: as §1, §2

For the compound `C[C@H]1Oc2c(c(O)c3c(=O)c4ccc(O)c(O)c4oc3c2CCC(C)(C)O)C1(C)C` [Compound 4, gerontoxanthone C hydrate], inhibition in data set [1] was half-maximal at 27.7 ± 6.4 µM (IC50 at 16 h). In data set [2], the inhibition at 20 µM is less than 10%. For the same compound, in data set [3], the IC50 was determined as 20 ± 4 µM; the “suppression of NO production, BV-2” value is “over 70%”; the “IC50 of NO inhibition lower than the cytotoxic activity, BV-2” value is 1.4 fold. Also, in data set [4], the IC50 stood at 84.3 ± 3.5 µM and the “suppression of NO production, RAW 264.7” value was “over 70%”. In data set [5], this compound returned an IC50 at 16 h of more than 200 µM.

`C[C@@H]1Oc2cc(O)c3c(=O)c4ccc(O)c(O)c4oc3c2C1(C)C` [Compound 7, 2-deprenylrheediaxanthone B] had an IC50 at 16 h in data set [1] of 31.7 ± 4.7 µM. The inhibition at 20 µM in data set [2] was less than 10%. In data set [3], the half-inhibitory concentration (IC50) was determined as 28.7 ± 2.3 µM; the “suppression of NO production, BV-2” value was “over 70%”; the “IC50 of NO inhibition lower than the cytotoxic activity, BV-2” value was found to be 1.1 fold. In data set [4], the IC50 was determined as 45.6 ± 6.5 µM and the “suppression of NO production, RAW 264.7” value is listed as “over 70%”. The IC50 at 16 h in data set [5] turned out to be 85.6 ± 6.9 µM.
